Measurements as given in publication PMC3440086, “Profiling Environmental Chemicals for Activity in the Antioxidant Response Element Signaling Pathway Using a High Throughput Screening Approach” (Environmental Health Perspectives, 2012).
Entries after “also recorded” stand apart in the source; their conditions may differ. Read-outs that look alike come from different tables or passages of the source.

Assays:
[1] = test system: mutated ARE; type: cell-based
[2] = test system: Nrf2-dependent ARE transcriptional activity; experiment: ARE-luc luciferase reporter gene assay in HepG2 cells (qHTS); type: cell-based; conditions: for Emax: read-out: ARE-luc Efficacy; for EC50: read-out: ARE-luc EC50
[3] = test system: antioxidant response element (ARE) signaling pathway; experiment: ARE-bla β-lactamase reporter gene assay in HepG2 cells (qHTS); type: cell-based, human; conditions: for Emax: read-out: ARE-bla Efficacy; for EC50: read-out: ARE-bla EC50
[4] = confirmation/follow-up studies, HepG2, mean ± SD
[5] = confirmation/follow-up studies, HepG2, 16 hr exposure, mean ± SD
[6] = Homo sapiens, HepG2, confirmation/follow-up studies, activation of ARE reporter as % of positive control (β-napthoflavone)
[7] = Homo sapiens, confirmation/follow-up studies, HepG2, 16 hr exposure, mean ± SD
[8] = follow-up studies, up to 46 µM, listed as 3-dimethylaminophenol
[9] = primary qHTS screening, 0.59 nM to 92 µM
[10] = Homo sapiens, HepG2, confirmation/follow-up studies, […]
[11] = follow-up studies, up to 46 µM, listed as quinoline
[12] = follow-up studies, up to 46 µM, listed as chlorambucil

ClC(Cl)=C(c1ccc(Cl)cc1)c1ccc(Cl)cc1 [p,p' -DDE, Dichlorodiphenyl dichloroethylene]
ARE-bla mutant IC50 [1, 4]: inactive | ARE-luc EC50 [2, 5]: inactive | ARE-bla EC50 [3, 5]: inactive

O=[N+]([O-])c1cc(Cl)c(Cl)c(Cl)c1Cl [2,3,4,5-Tetrachloronitrobenzene]
ARE-bla mutant IC50 [1, 4]: inactive | Emax [2, 6]: 124% | EC50 [2, 7]: 27.7 ± 6.7 µM | Emax [3, 6]: 56% | EC50 [3, 7]: 9.4 ± 3.2 µM

CN(C)c1cccc(O)c1 [3-Dimethylaminophenol]
ARE-bla mutant IC50 [1, 4]: inactive | activity in ARE-bla-mut assay (words) ([1]; follow-up studies, up to 46 µM): inactive in all assays | activity in ARE-luc assay (words) ([2]; follow-up studies, up to 46 µM): inactive in all assays | activity in ARE-luc assay (words) [2, 8]: inactive | activity in ARE-bla assay (words) ([3]; follow-up studies, up to 46 µM): inactive in all assays | activity in ARE-bla assay (words) [3, 8]: inactive

C[C@H](CCC(=O)O)[C@H]1CC[C@H]2[C@@H]3CC[C@@H]4C[C@H](O)CC[C@]4(C)[C@H]3CC[C@]12C [Lithocholic acid]
ARE-bla mutant IC50 [1]: inactive | Emax [2, 6]: 61% | EC50 [2, 7]: 21.9 ± 8.2 µM | activity in ARE-luc assay (words) ([2]; follow-up studies, up to 46 µM): active | activity in ARE-luc assay (words) [2, 9]: inactive | Emax [3, 6]: 65% | EC50 [3, 7]: 17.7 ± 5.7 µM

Cc1cccc2sc(N)nc12 [2-Amino-4-methylbenzothiazole]
ARE-bla mutant IC50 [1, 4]: inactive | ARE-luc EC50 [2, 5]: inactive | Emax [3, 6]: 49% | EC50 [3, 7]: 10.1 ± 2.1 µM | activity in ARE-bla assay (words) ([3]; follow-up studies, up to 46 µM): active only in the ARE-bla assay

Nc1cc(Cl)ccc1O [2-Amino-4-chlorophenol]
ARE-bla mutant IC50 [1, 4]: inactive | Emax [2, 6]: 175% | EC50 [2, 7]: 6.3 ± 2.1 µM | Emax [3, 10]: 72% | EC50 [3, 7]: 7 ± 1.8 µM

1,3-Dinitronapthalene
ARE-bla mutant IC50 [1]: inactive | ARE-luc Efficacy [2]: 180% | EC50 [2]: 16.2 ± 11 µM | ARE-bla Efficacy [3]: 80% | EC50 [3]: 1.2 ± 0.2 µM

c1ccc2ncccc2c1 [Quinoline]
ARE-bla mutant IC50 [1]: inactive | activity in ARE-bla-mut assay (words) [1]: inactive across all assays; also recorded: inactive in all assays | ARE-luc EC50 [2, 5]: inactive | activity in ARE-luc assay (words) ([2]; follow-up studies, up to 46 µM): inactive in all assays | activity in ARE-luc assay (words) [2, 11]: inactive across all assays | ARE-bla EC50 [3, 5]: inactive | activity in ARE-bla assay (words) ([3]; follow-up studies, up to 46 µM): inactive in all assays | activity in ARE-bla assay (words) [3, 11]: inactive across all assays

Nc1ccc(Cl)cc1N [4-Chloro-o-phenylenediamine]
ARE-bla mutant IC50 [1, 4]: inactive | Emax [2, 10]: 111% | EC50 [2, 7]: 27.2 ± 3.7 µM | activity in ARE-bla assay (words) ([3]; follow-up studies, up to 46 µM): inactive | activity in ARE-bla assay (words) [3, 9]: showed activity

Oc1ccc(/C=C/c2cc(O)cc(O)c2)cc1 [resveratrol]
activity in ARE-luc assay (words) [2, 9]: active | activity in ARE-bla assay (words) [3, 9]: active

O=c1cc(-c2ccccc2)oc2ccccc12 [Flavone]
ARE-bla mutant IC50 [1, 4]: inactive | Emax [2, 6]: 47% | EC50 [2, 7]: 7.6 ± 0.5 µM | Emax [3, 6]: 80% | EC50 [3, 7]: 2.4 ± 0.6 µM

CN(C)c1ccc(N)cc1 [N,N-Dimethyl-p-phenylenediamine]
ARE-bla mutant IC50 [1, 4]: inactive | Emax [2, 10]: 24% | EC50 [2, 7]: 11.8 ± 4.4 µM | Emax [3, 10]: 80% | EC50 [3, 7]: 9.6 ± 0.6 µM

O=C(O)CCCc1ccc(N(CCCl)CCCl)cc1 [Chlorambucil, reference compound]
ARE-bla mutant IC50 [1, 4]: inactive | activity in ARE-bla-mut assay (words) ([1]; follow-up studies, up to 46 µM): inactive in all assays | activity in ARE-bla-mut assay (words) [1, 12]: inactive across all assays | ARE-luc EC50 [2, 5]: inactive | activity in ARE-luc assay (words) ([2]; follow-up studies, up to 46 µM): inactive in all assays | activity in ARE-luc assay (words) [2, 12]: inactive across all assays | ARE-bla EC50 [3, 5]: inactive | activity in ARE-bla assay (words) ([3]; follow-up studies, up to 46 µM): inactive in all assays | activity in ARE-bla assay (words) [3, 12]: inactive across all assays

COc1cc(/C=C/C(=O)CC(=O)/C=C/c2ccc(O)c(OC)c2)ccc1O [Curcumin]
ARE-bla mutant IC50 [1, 4]: inactive | Emax [2, 6]: 165% | EC50 [2, 7]: 10.8 ± 0.7 µM | activity in ARE-luc assay (words) [2, 9]: high-quality active | Emax [3, 6]: 21% | EC50 [3, 7]: 3.2 ± 3.2 µM | activity in ARE-bla assay (words) [3, 9]: high-quality active

CN1CSC(=S)N(C)C1 [Dazomet]
ARE-bla mutant IC50 [1, 4]: inactive | Emax [2, 10]: 22% | EC50 [2, 7]: 26.6 ± 2.2 µM | Emax [3, 10]: 55% | EC50 [3, 7]: 20.1 ± 6.6 µM

ClC1=C(Cl)[C@]2(Cl)[C@@H]3[C@@H]4C[C@@H]([C@H]5O[C@@H]45)[C@@H]3[C@@]1(Cl)C2(Cl)Cl [Dieldrin]
ARE-bla mutant IC50 [1, 4]: inactive | Emax [2, 10]: 27% | EC50 [2, 7]: 14.2 ± 15 µM | Emax [3, 10]: 40% | EC50 [3, 7]: 15.5 ± 11.8 µM

Nc1nc2ccc([N+](=O)[O-])cc2s1 [2-Amino-6-nitrobenzothiazole]
ARE-bla mutant IC50 [1, 4]: inactive | ARE-luc EC50 [2, 5]: inactive | Emax [3, 6]: 107% | EC50 [3, 7]: 16.7 ± 9.6 µM | activity in ARE-bla assay (words) ([3]; follow-up studies, up to 46 µM): active only in the ARE-bla assay
